This is an account of results in the NIST ThermoML archive (doi:10.1016/j.fluid.2018.04.016).

Numbers after ± are expanded uncertainties.

A short description of the first data set: refractive index (Na D-line) (dimensionless). Conditions: 293.15 K; 101.33 kPa; Liquid; Standard Abbe refractometry.
Take `CCC=O` [propanal]: the refractive index – broadly, the speed of light in vacuum divided by its phase velocity in the sample – amounted to 1.3644 ± 0.002. Consider `O=Cc1ccco1` [2-furaldehyde], for which the refractive index is 1.5264 ± 0.002. On the same count and under the same terms, as for `CO` [methanol], the figure is 1.3293 ± 0.002; as for `CC(=O)OC(C)C` [1-methylethyl ethanoate], 1.3779 ± 0.002. `Cc1ccccc1` [toluene]: the refractive index amounted to 1.4969 ± 0.002. Take `CC(=O)CO` [acetol]: the refractive index was found to be 1.4262 ± 0.0023. Take `COc1ccccc1O` [2-methoxyphenol]: the refractive index came out at 1.5441 ± 0.002.

The same data set, now with this note: 314.15 K; 101.33 kPa; Liquid; Standard Abbe refractometry.
As for `Oc1ccccc1` [phenol], the refractive index is given as 1.5405 ± 0.002.
